In ChEMBL document CHEMBL1909046, “DrugMatrix in vitro pharmacology data”:

Key:
[1] = molecular target: Protein phosphatase 3 catalytic subunit alpha (Homo sapiens, UniProt Q08209); design: species or system Escherichia coli;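 note: inhibition of calcineurin (PP2B) enzyme activity, measured with DiFMUP as the substrate; in other assays of this panel Not Active means under 50% inhibition at 10 µM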
[2] = DRUGMATRIX: GABAA, Muscimol, Central radioligand binding (ligand: [3H] Muscimol); format: cell membranes, Rattus norvegicus, Wistar, Brain, Membrane; conditions: Not Active = under 50% inhibition at 10 µM
[3] = DRUGMATRIX: beta-Lactamase enzyme inhibition (substrate: Nitrocefin); design: species or system Bacillus cereus; conditions: Not Active = under 50% inhibition at 10 µM
[4] = molecular target: T1, Angiotensin-converting enzyme (Oryctolagus cuniculus, UniProt P12822); format: tissue-based, Lung;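 note: enzymatic inhibition of angiotensin-converting enzyme measured with FAPGG as the substrate; in other assays of this panel Not Active means under 50% inhibition at 10 µM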
T1 sequence (P12822 whole entry): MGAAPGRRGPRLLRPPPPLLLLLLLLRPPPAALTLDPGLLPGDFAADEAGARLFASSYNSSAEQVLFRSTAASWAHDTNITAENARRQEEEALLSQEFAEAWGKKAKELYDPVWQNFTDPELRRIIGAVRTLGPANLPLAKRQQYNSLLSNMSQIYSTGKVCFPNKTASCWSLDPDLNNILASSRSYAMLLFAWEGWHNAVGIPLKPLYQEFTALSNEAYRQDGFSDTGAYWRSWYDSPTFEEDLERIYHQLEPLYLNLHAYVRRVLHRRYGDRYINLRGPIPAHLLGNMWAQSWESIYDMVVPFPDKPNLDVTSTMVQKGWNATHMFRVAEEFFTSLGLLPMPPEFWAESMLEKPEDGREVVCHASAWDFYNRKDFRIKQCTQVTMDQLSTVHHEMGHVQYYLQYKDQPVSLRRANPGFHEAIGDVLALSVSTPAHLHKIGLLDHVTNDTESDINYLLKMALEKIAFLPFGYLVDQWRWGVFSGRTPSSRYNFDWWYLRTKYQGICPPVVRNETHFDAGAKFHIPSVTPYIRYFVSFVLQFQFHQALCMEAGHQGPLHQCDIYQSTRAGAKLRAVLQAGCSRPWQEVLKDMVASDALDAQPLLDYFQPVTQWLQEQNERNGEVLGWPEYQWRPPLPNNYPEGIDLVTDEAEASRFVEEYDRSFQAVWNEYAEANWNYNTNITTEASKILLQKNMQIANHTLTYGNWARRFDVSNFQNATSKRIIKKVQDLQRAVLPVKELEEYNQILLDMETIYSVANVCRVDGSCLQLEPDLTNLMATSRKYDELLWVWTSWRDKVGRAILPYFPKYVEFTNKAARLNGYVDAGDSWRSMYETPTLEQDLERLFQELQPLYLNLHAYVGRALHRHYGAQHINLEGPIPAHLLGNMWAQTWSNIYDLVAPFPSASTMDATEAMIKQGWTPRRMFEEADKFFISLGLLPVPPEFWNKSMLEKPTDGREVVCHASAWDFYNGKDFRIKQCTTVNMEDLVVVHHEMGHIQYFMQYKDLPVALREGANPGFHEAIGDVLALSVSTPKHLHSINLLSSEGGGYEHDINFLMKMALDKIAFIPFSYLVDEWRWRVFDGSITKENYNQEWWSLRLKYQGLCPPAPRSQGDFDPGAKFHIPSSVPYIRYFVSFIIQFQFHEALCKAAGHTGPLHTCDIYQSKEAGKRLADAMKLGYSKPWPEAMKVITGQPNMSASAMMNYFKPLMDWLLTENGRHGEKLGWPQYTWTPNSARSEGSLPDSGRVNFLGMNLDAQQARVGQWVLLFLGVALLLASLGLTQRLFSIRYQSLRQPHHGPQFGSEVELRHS

Cytochrome P450 2C19 = Cytochrome P450 2C19 (Homo sapiens, UniProt P33261); conditions: bti-tn-5b1-4; note: in other assays of this panel Not Active means under 50% inhibition at 10 µM
Estrogen receptor beta = Estrogen receptor beta (Homo sapiens, UniProt Q92731); conditions: sf9; note: in other assays of this panel Not Active means under 50% inhibition at 10 µM
[5] = molecular target: T2, C-X-C chemokine receptor type 2 (Homo sapiens, UniProt P25025); format: cell membranes, Membrane; conditions: cho-k1; note: in other assays of this panel Not Active means under 50% inhibition at 10 µM
T2 sequence (P25025 whole entry): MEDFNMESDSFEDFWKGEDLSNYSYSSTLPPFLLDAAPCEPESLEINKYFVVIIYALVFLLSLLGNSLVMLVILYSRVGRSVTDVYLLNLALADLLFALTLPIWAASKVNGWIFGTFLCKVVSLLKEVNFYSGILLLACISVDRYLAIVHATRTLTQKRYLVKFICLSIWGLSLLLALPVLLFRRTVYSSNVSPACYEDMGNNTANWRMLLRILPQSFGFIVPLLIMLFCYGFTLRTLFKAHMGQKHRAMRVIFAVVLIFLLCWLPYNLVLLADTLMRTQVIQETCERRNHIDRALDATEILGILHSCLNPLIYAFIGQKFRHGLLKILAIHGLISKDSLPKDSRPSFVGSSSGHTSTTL

D(4) dopamine receptor = molecular target: T3, D(4) dopamine receptor (Homo sapiens, UniProt P21917); assay: DRUGMATRIX: Dopamine D4.2 radioligand binding (ligand: [3H] Spiperone); format: cell membranes, CHO-K1, Membrane; conditions: cho-k1; Not Active = under 50% inhibition at 10 µM
T3 sequence (P21917 whole entry): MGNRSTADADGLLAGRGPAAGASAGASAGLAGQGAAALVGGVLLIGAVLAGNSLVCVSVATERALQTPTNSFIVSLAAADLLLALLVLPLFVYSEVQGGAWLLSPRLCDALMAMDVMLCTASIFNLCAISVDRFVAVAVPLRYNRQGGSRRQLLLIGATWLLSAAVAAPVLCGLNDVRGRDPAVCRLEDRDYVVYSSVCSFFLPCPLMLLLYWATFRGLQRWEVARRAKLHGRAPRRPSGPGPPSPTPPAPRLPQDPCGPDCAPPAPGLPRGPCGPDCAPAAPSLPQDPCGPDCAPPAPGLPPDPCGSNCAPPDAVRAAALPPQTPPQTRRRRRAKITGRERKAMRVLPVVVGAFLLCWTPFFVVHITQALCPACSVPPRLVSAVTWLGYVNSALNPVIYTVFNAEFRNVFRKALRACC

[6] = DRUGMATRIX: Sodium/nucleoside co-transporter radioligand binding (ligand: nitrobenzylthioinosine); format: cell membranes, Cavia porcellus, Dunkin-Hartley, Cerebral cortex, Membrane; conditions: Not Active = under 50% inhibition at 10 µM

Chain of Cytochrome P450 2C19 (P33261 whole entry): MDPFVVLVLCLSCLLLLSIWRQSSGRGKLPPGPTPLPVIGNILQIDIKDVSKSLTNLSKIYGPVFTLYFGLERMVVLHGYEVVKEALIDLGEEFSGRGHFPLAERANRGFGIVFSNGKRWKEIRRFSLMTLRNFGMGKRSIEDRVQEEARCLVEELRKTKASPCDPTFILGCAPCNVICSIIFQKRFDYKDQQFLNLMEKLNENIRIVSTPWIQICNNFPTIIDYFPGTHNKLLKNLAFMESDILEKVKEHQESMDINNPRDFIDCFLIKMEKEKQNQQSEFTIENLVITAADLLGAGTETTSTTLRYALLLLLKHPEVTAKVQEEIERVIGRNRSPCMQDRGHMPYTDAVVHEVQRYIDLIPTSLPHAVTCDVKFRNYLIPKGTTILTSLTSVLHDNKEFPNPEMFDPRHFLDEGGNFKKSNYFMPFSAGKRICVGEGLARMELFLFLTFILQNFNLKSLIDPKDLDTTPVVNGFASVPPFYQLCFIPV
Chain of Estrogen receptor beta (Q92731 whole entry): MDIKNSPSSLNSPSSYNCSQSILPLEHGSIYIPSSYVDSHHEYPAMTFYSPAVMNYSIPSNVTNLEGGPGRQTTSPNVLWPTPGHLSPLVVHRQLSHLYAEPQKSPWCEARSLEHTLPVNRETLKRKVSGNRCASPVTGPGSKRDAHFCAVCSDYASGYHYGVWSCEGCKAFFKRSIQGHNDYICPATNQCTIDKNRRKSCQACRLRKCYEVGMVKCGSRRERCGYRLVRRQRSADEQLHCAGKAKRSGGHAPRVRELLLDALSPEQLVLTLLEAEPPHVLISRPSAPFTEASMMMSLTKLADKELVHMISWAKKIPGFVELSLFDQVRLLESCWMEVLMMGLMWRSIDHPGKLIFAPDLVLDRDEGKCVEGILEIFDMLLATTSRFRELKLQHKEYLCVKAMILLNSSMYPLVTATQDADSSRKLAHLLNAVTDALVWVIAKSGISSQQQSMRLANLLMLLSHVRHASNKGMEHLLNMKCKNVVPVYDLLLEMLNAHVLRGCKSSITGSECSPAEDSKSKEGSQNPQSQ

Cc1onc(O)c1CC(N)C(=O)O (racemic) [(R,S)-AMPA]
Not Active: IC50 [1] | IC50 [2] | Ki [2] | IC50 [3] | Ki [3] | IC50 [4] | IC50 (Cytochrome P450 2C19) | Ki (Cytochrome P450 2C19) | IC50 (Estrogen receptor beta) | IC50 [5] | IC50 (D(4) dopamine receptor) | IC50 [6] | Ki [6]

Cc1ccc2cc3c(ccc4ccccc43)c3c2c1CC3 [3-METHYLCHOLANTHRENE]
Not Active: IC50 [1] | IC50 [2] | Ki [2] | IC50 [3] | Ki [3] | IC50 [4] | IC50 (Cytochrome P450 2C19) | Ki (Cytochrome P450 2C19) | IC50 (Estrogen receptor beta) | IC50 [5] | IC50 (D(4) dopamine receptor) | IC50 [6] | Ki [6]

CC[C@@]1(O)C[C@H](O[C@H]2C[C@H](N(C)C)[C@H](O[C@H]3C[C@H](O)[C@H](O[C@H]4CCC(=O)[C@H](C)O4)[C@H](C)O3)[C@H](C)O2)c2c(cc3c(c2O)C(=O)c2c(O)cccc2C3=O)[C@H]1C(=O)OC [ACLARUBICIN]
Not Active: IC50 [1] | IC50 [2] | Ki [2] | IC50 [3] | Ki [3] | IC50 [4] | IC50 (Cytochrome P450 2C19) | Ki (Cytochrome P450 2C19) | IC50 (Estrogen receptor beta) | IC50 [5] | IC50 (D(4) dopamine receptor) | IC50 [6] | Ki [6]

Cc1c(C)c2c(c(C)c1O)CC[C@@](C)(CCC[C@H](C)CCC[C@H](C)CCCC(C)C)O2 [ALPHA-TOCOPHEROL]
Not Active: IC50 [1] | IC50 [2] | Ki [2] | IC50 [3] | Ki [3] | IC50 [4] | IC50 (Cytochrome P450 2C19) | Ki (Cytochrome P450 2C19) | IC50 (Estrogen receptor beta) | IC50 [5] | IC50 (D(4) dopamine receptor) | IC50 [6] | Ki [6]

Cc1ccc(/N=C/N(C)/C=N/c2ccc(C)cc2C)c(C)c1 [AMITRAZ]
Not Active: IC50 [1] | IC50 [2] | Ki [2] | IC50 [3] | Ki [3] | IC50 [4] | IC50 (Cytochrome P450 2C19) | Ki (Cytochrome P450 2C19) | IC50 (Estrogen receptor beta) | IC50 [5] | IC50 (D(4) dopamine receptor) | IC50 [6] | Ki [6]

CCOC(=O)C1=C(COCCN)NC(C)=C(C(=O)OC)C1c1ccccc1Cl (stereo not given) [AMLODIPINE]
Not Active: IC50 [1] | IC50 [2] | Ki [2] | IC50 [3] | Ki [3] | IC50 [4] | IC50 (Cytochrome P450 2C19) | Ki (Cytochrome P450 2C19) | IC50 (Estrogen receptor beta) | IC50 [5] | IC50 (D(4) dopamine receptor) | IC50 [6] | Ki [6]

COc1ccc(C[C@H]2NC[C@H](O)[C@H]2OC(C)=O)cc1 [ANISOMYCIN]
Not Active: IC50 [1] | Ki [1] | IC50 [2] | Ki [2] | IC50 [3] | Ki [3] | IC50 [4] | Ki [4] | IC50 (Cytochrome P450 2C19) | Ki (Cytochrome P450 2C19) | IC50 (Estrogen receptor beta) | Ki (Estrogen receptor beta) | IC50 [5] | Ki [5] | IC50 (D(4) dopamine receptor) | Ki (D(4) dopamine receptor) | IC50 [6] | Ki [6]

CN(C)C(=O)Oc1cc(OC(=O)N(C)C)cc(C(O)CNC(C)(C)C)c1 (stereo not given) [BAMBUTEROL]
Not Active: IC50 [1] | IC50 [2] | Ki [2] | IC50 [3] | Ki [3] | IC50 [4] | IC50 (Cytochrome P450 2C19) | Ki (Cytochrome P450 2C19) | IC50 (Estrogen receptor beta) | IC50 [5] | IC50 (D(4) dopamine receptor) | IC50 [6] | Ki [6]

c1ccc2c(c1)c1cccc3ccc4cccc2c4c31 [BENZO[E]PYRENE]
Not Active: IC50 [1] | IC50 [2] | Ki [2] | IC50 [3] | Ki [3] | IC50 [4] | IC50 (Cytochrome P450 2C19) | Ki (Cytochrome P450 2C19) | IC50 (Estrogen receptor beta) | IC50 [5] | IC50 (D(4) dopamine receptor) | IC50 [6] | Ki [6]

CC(C)C(Br)C(=O)NC(N)=O (stereo not given) [BROMISOVALUM]
Not Active: IC50 [1] | IC50 [2] | Ki [2] | IC50 [3] | Ki [3] | IC50 [4] | IC50 (Cytochrome P450 2C19) | Ki (Cytochrome P450 2C19) | IC50 (Estrogen receptor beta) | IC50 [5] | IC50 (D(4) dopamine receptor) | IC50 [6] | Ki [6]
